Laboratory results: patent publication US9090701B2, “Methods of detecting oxidized calcium/calmodulin dependent protein kinase II” (University of Iowa Research Foundation, priority 2008, dated 2015)

Experiments:
[1] = tested on: oxidized CaMKII; test: Oxidized / phosphorylated CaMKII in hearts of treated mice (immunostaining, immunoblot); format: in vivo
Method: (§1) Mice were anesthetized with ketamine (87.5 mg/kg) and xylazine (12.5 mg/kg), and a small incision was made in the skin near the spine, approximately 1 cm above the hip. Minipumps containing saline or AngII (3 mg/kg/day) were inserted and the skin was sutured closed. Other mice were given, daily injections of Iso (30 mg/kg/day, intraperitoneal) for 7 days. Animals were then sacrificed and the heart was removed, fixed, and embedded in paraffin. Transverse heart sections of 5 μm thickness were made. To confirm the identity of cardiomyocytes, heart sections were immunolabeled with alpha-actinin Ig (cardiomyocyte-specific marker). Only sections with >90% cardiomyocytes were used in experiments. (See FIG. 13.) Paraffin was removed, and TUNEL staining was performed using In Situ cell death detection kits, TMR Red (Roche). Nuclei were co-stained with DAPI. To determine percent of TUNEL positive nuclei, whole heart sections were divided into four quadrants and one image was taken at random within each quadrant. In the case of sections from post-MI mice, an average of 50% of the heart quadrants were from portions of the heart adjacent to the MI. An investigator blinded to the identity and treatment of the mice counted the number of total and TUNEL positive cells in each image.
Other sections were treated with either a general CaMKII antibody or oxidized CaMKII antiserum. Nuclei were co-stained with DAPI. Identity of cardiomyocytes was confirmed by co-stain with an antibody against α-actinin. Images were quantified for relative staining intensity using Image J (NIH, USA). Each image was divided into four quadrants, and one rectangular area of equal size and shape was randomly placed within the cytosolic area of each quadrant, excluding DAPI-stained nuclei. Relative intensity of an image was judged to be the mean of the intensity measurements taken in each quadrant. Both the investigators and technical personnel assigned to immunostaining and quantification were blinded to the genetic identity and treatment of the mice in all studies.
To determine the role of CaMKII oxidation In apoptosis, mice were treated with saline, AngII, or isoproterenol (Iso) for one week, and transverse heart, sections from these mice were probed for the production of oxidized CaMKII in vivo. […] Total CaMKII immunoreactivity remained constant regardless of treatment. […] (See FIG. 6).
Homogenized hearts from mice treated with saline, AngII, or Iso, and whole heart lysates were analyzed by immunoblot for oxidized CaMKII.
Methionine oxidation is specifically reversed by MsrA (Weissbach e.g., 2002), so it was hypothesized that MsrA^−/− mice would show enhanced vulnerability to AngII-mediated CaMKII oxidation and apoptosis. In order to test this idea, MsrA^−/− and WT control mice were implanted with AngII or saline elating osmotic mini pumps. […] In order to test if CaMKII oxidation and apoptosis were regulated by NADPH oxidase and MsrA in the setting of myocardial infarction, MsrA^−/−, p47^−/−, and WT mice were subjected to myocardial infarction surgery. […] Myocardial infarction surgery was performed on a larger cohort of MsrA^−/− and WT control mice to determine if increased CaMKII oxidation and apoptosis in MsrA^−/− mice translated into poorer functional outcomes.
To test the specificity of this antiserum, Western blots of isolated CaMKII after no treatment, oxidation with H2O2, or phosphorylation with ATP were performed. CaMKII samples were probed for either total protein using a general CaMKII antibody or for oxidized CaMKII with anti-oxCaMKII antiserum. […] (See FIG. 14A). To test the efficacy of the antiserum in tissue staining, mice were treated with either saline or angiotensin II, an oxidant stimulating agent in cardiac tissue, and stained heart sections and performed immunofluorescent stains for oxidized CaMKII. […] (See FIG. 14B).

[2] = tested on: cardiomyocytes; test: Intracellular calcium concentration (Fura-2 imaging); format: cell-based, mouse; conditions: compared to Iso, cardiomyocytes from WT and p47−/− mice, 100 nM
Method: Intracellular calcium concentration was assessed by Fura-2 fluorescence ratio imaging using a microscopic digital imaging system (Photon Technology International), as described previously (Sharma e.g., 1995). Briefly, cultured primary cardiac myocytes were loaded with the Ca^2+-specific dye Fura-2 by incubating with 1 μM Fura-2AM (Molecular Probes) at 37° C. for 30 minutes. [Ca^2+]t values over the entire cell were calculated from the 340/380-nm ratio images of Fura-2 fluorescence captured before, during and after Iso (100 nM) or AngII (100 nM) stimulation.
In order to validate the connection between AngII and ROS in this experimental model, isolated cardiomyocytes from WT and p47^−/− mice were treated with 100 nM AngII and monitored production of ROS by Imaging DHE, a fluorescent reporter for superoxide and hydrogen peroxide (FIG. 7C). Wild-type cardiomyocytes were incubated with fura-2 AM, a cell-permeant calcium indicator to observe changes in intracellular Ca^2+ ([Ca^2+]i).

[3] = tested on: heart; set-up: species or system mice; conditions: mouse, in vivo
Method: as §1, with “image. […]” for “image.”

Substance: angiotensin II (DRVYIHPF; Angiotensin-2; UniProt P01019 25-32, looked up) [AngII, oxidant stimulating agent in cardiac tissue]
- CaMKII oxidation in hearts ([1]; MsrA−/− mice, vs saline MsrA−/− and control hearts): significantly more CaMKII oxidation
- Oxidized CaMKII in heart sections ([1]; WT mice): more oxidized CaMKII than those treated with saline or Iso
- Staining for T287-phosphorylated CaMKII in heart sections ([1]; WT mice, AngII 3 mg/kg/day 1 week): increased staining
- Oxidized CaMKII in heart sections ([1]; WT mice, listed as angiotensin II): significant staining relative to the control
- Oxidized CaMKII in heart sections ([1]; p47−/− mice): did not show increased levels of oxidized CaMKII
- Staining for T287-phosphorylated CaMKII in heart sections ([1]; p47−/− mice): unaffected
- Oxidized CaMKII in whole heart lysates (immunoblot) ([1]; vs saline or Iso): significantly increased oxidized CaMKII levels
- Increases in [Ca2+]i [2]: significantly less
- TUNEL staining of hearts [3]: increased TUNEL staining
